Laboratory results from patent US10111854B2, “Synthesis and use of amine-containing flavonoids as potent anti-leishmanial agents” (The Hong Kong Polytechnic University, priority 2014, dated 2018).
Where a name gives a salt, the structure may show the parent alone.

Legend:
[1] = tested on: L. amazonensis LV78 promastigotes; assay: Anti-promastigote activity (MTS assay), L. amazonensis LV78; format: cell-based; conditions: 72 hours
Protocol: (§1) Promastigotes of visceral L. donovani Ld39 and LdHU3, and cutaneous L. amazonensis LV78, L. braziliensis UA847 and L. major FV1 were employed in the study. All strains were cultured in Schneider's Drosophila Medium (Invitrogen), pH 6.9 supplemented with 10% (v/v) heat inactivated fetal bovine serum (Hyclone) with 4 mM glutamine (Sigma) and 25 μg/mL gentamicin solution (Invitrogen) at 27° C. for 4 days. RAW264.7 cells were cultured in supplemented DMEM media with 10% heat inactivated FBS and 100 U/mL penicillin and 100 μg/mL of streptomycin. They were maintained at 37° C. in a humidified atmosphere with 5% CO2. The cells were split constantly after a confluent monolayer has been formed. The cells were harvested by a cell scraper.
(§2) Anti-promastigote activity was determined according to previous procedures (1) by Cell Titer 96® Aqueous Assay (Promega) that employed a tetrazolium compound. Promastigotes were seeded into 96-well flat bottom microtiter plate at 1×10^5 cells per well in a final volume of 100 μL medium and incubated with a series of concentrations of synthetic FM. Parasites were incubated at 27° C. for 72 hours. After 72 hours of incubation, 10 μL of MTS:PMS mixture [MTS:2-(4,5-Dimethylthiazol-2-yl-)-5-[3-(carboxymethoxy)phenyl]-2-(4-sulfophenyl)-2H-tetrazolium); PMS: phenazine methosulfate both purchased from Sigma] was added into each well of microtiter plate. The plate was then incubated at 27° C. for 4 hours for color development. After 4 hours of incubation, the OD values were determined at 490 nm using automatic microtiter plate reader (Bio-Rad).
(§3) IC50 values of known antileishmanials and the amine-containing flavonoid monomers of the present invention to promastigotes (L. amazonensis LV78, L major FV1, L. donovani HU3, L. donovani 39), macrophages (Raw 264.7 and PEM) and mouse fibroblast (L929) were determined. The anti-promastigotes activities and cytotoxicity of the amine-containing flavonoid monomers of the invention are shown in Table 1.

[2] = tested on: L. donovani HU3 promastigotes; assay: Anti-promastigote activity (MTS assay), L. donovani HU3; format: cell-based; conditions: 72 hours
Protocol: as §1, §2, §3

mouse fibroblast (L929) = assay: Cytotoxicity, L929 fibroblasts; format: cell-based; conditions: mouse fibroblast L929
Protocol: as §3

[3] = tested on: L. amazonensis LV78 amastigotes; assay: Anti-amastigote activity in infected PEM, L. amazonensis LV78; format: cell-based; conditions: for IC50: infected PEM, 3 days, Giemsa; for Selective index (a)/(b): IC50 RAW264.7 over IC50 L. amazonensis LV78 amastigotes
Protocol: (§4) Mouse peritoneal elicited macrophages (PEM) were obtained as previously described (2). A round cover slip (12 mm in diameter) was placed into each well of 24-well culture plate. Mouse PEM were resuspended in supplemented DMEM media containing 10% heat inactivated FBS (v/v), 100 U/mL penicillin and 100 μg/mL streptomycin and seeded into each well at a cell density of 1×10^5 cells per 500 μL. Macrophages were allowed to attach overnight. Non-adherent cells were removed by gentle washing with un-supplemented DMEM media twice. Adherent macrophages were infected with late-log promastigotes at a parasite-to-macrophage ratio of 20:1 overnight at 37° C. with 5% CO2. Non-internalized promastigotes were removed by washing twice with un-supplemented DMEM media. Infected macrophages were further incubated in 500 μL of supplemented DMEM media in the presence or absence of FM for 72 hours at 37° C. After incubation, cover slips were stained with Giemsa and the percentage of macrophages infected and number of amastigotes per 100 macrophages was enumerated.
(§5) PEM cells were infected with late-log promastigotes (L. amazonensis LV78, L. braziliensis UA847, L. donovani HU3, L. donovani 39) for 24 hr at 37° C. Infected macrophages were then treated with various antileishmanials and incubated for 3 days at 37° C. After 3 days, the cover slips were stained with Giemsa. The number of amastigotes per 100 macrophages were determined and used to calculate IC50 values.

[4] = tested on: L. donovani HU3 amastigotes; assay: Anti-amastigote activity in infected PEM, L. donovani HU3; format: cell-based; conditions: infected PEM, 3 days, Giemsa, SSG-sensitive
Protocol: as §4, §5

[5] = Cytotoxicity, L929 fibroblasts; format: cell-based, mouse; conditions: mouse
Protocol: as §3

[6] = Cytotoxicity, peritoneal elicited macrophages (PEM); format: cell-based, mouse; conditions: mouse, Cytotoxicity IC50, PEM
Protocol: as §4, §3

[7] = tested on: L. amazonensis and L. donovani HU3 promastigotes and amastigotes; assay: Anti-promastigote and anti-amastigote activity of FM09, FM01 and FM05 derivatives; format: cell-based, Leishmania; conditions: stage and strain not specified; read-out: IC50, anti-promastigote and anti-amastigote activity (Table 3C)
Protocol: Derivatives of FM09, FM01 and FM05 were synthesized and their anti-promastigote and anti-amastigote activity were determined (Table 3C). Many amine-containing flavonoid monomers have IC50 less than 5 μM, including FM09a, FM09b, FM09c, FM09e, FM09h, FM09i, FM09k, FM09l, FM01b and FM05b.

[8] = Pharmacokinetics study of FM09, FM09h and FM05b, iv and oral; format: in vivo, Balb/c mice; conditions: 50 mg/kg oral; for bioavailability: Balb/c, mouse, plasma, 10 mg/kg iv, dose-adjusted AUC oral over iv, read-out: Bioavailability (F)
Protocol: Animals were sacrificed at the indicated time point and plasma level of the corresponding flavonoids were determined using LC-MSMS. IC50 of corresponding flavonoids are indicated. Bioavailability (F) was calculated by dividing the dose-adjusted area under curve (AUC) of that of orally-fed over intravenously administered animals.

[9] = tested on: L. major FV1 promastigotes; assay: Anti-promastigote activity (MTS assay), L. major FV1; format: cell-based; conditions: 72 hours
Protocol: as §1, §2, §3

[10] = tested on: L. donovani Ld39 promastigotes; assay: Anti-promastigote activity (MTS assay), L. donovani Ld39; format: cell-based; conditions: 72 hours
Protocol: as §1, §2, §3

[11] = tested on: peritoneal elicited macrophages (PEM); assay: Cytotoxicity, peritoneal elicited macrophages (PEM); format: cell-based, mouse
Protocol: as §4, §3

[12] = Pharmacokinetics of FM05 hydrochloride salt, oral; format: in vivo, Balb/c mice; conditions: mouse, in vivo, po, 42 mg/kg
Protocol: Based on the result of the preliminary in vivo study, FM05 hydrochloride salt was selected for further investigation. FM05 hydrochloride salt was dissolved in saline at 4 mg/ml and administered to male balb/c at 42 mg/kg. Blood plasma samples were collected at various time points for pharmacokinetics analysis (n=2 to 3 for each time point).

[13] = tested on: L. braziliensis UA847 amastigotes; assay: Anti-amastigote activity in infected PEM, L. braziliensis UA847; format: cell-based; conditions: Leishmania braziliensis, 72 h, 3 days, Giemsa, read-out: Anti-amastigote activity IC50, L. baziliensis UA847
Protocol: as §4, §5

[14] = tested on: L. donovani Ld39 amastigotes (SSG-resistant); assay: Anti-amastigote activity in infected PEM, L. donovani Ld39; format: cell-based; conditions: for IC50: Leishmania donovani, 72 h, infected PEM, 3 days, Giemsa, SSG-resistant
Protocol: as §4, §5

[15] = tested on: amastigotes (L. amazonensis LV78, L. braziliensis UA847, L. donovani HU3, L. donovani 39); assay: Anti-amastigote activity, strain not given; format: cell-based; conditions: strain not specified; visceral and cutaneous Leishmania; read-out: IC50 against amastigotes
Protocol: as §4, §5

| SMILES | IC50 ([1]; Leishmania amazonensis) [µM] | IC50 ([2]; Leishmania donovani) [µM] | IC50 [5] [µM] | IC50 [6] [µM] | IC50 ([3]; Leishmania amazonensis, 72 h) [nM] | IC50 ([4]; Leishmania donovani, 72 h) [nM] | IC50 [7] [µM] | further results |
| --- | --- | --- | --- | --- | --- | --- | --- | --- |
| COc1ccnc(CN(CCOCCOc2ccc(-c3cc(=O)c4ccccc4o3)cc2)Cc2nccc(OC)c2OC)c1OC [FM09aHCl] | – | – | – | – | – | – | – | IC50 [1]: 0.77 ± 0.19 µM; IC50 [2]: 0.99 ± 0.19 µM; IC50 (mouse fibroblast (L929)): 12.9 ± 2.4 µM; IC50 [3]: 350 ± 10 nM; IC50 [4]: 500 ± 20 nM |
| COCCCOc1ccnc(CN(CCOCCOc2ccc(-c3cc(=O)c4ccccc4o3)cc2)Cc2nccc(OCCCOC)c2C)c1C [FM09k, 2-(4-(2-(2-(bis((4-(3-methoxypropoxy)-3-methylpyridin-2-yl)methyl)amino)ethoxy)ethoxy)phenyl)-4H-chromen-4-one] | 0.16 ± 0.05 | 1.06 ± 0.1 | 4.7 ± 0.71 | 5.3 | 320 ± 20 | 300 ± 40 | < 5 | – |
| O=c1cc(-c2ccc(OCCOCCN(Cc3ccc4ccccc4n3)Cc3ccc4ccccc4n3)cc2)oc2ccccc12 [FM09l, 2-(4-(2-(2-(bis(quinolin-2-ylmethyl)amino)ethoxy)ethoxy)phenyl)-4H-chromen-4-one] | 4.44 ± 1.24 | 4.74 ± 0.56 | > 100 | 67.1 | 3030 ± 410 | 4500 ± 2380 | < 5 | – |
| Cc1c(OCC(F)(F)F)ccnc1CN(CCOCCOc1ccc(-c2cc(=O)c3ccccc3o2)cc1)Cc1nccc(OCC(F)(F)F)c1C [FM09h, 2-(4-(2-(2-(bis((3-methyl-4-(2,2,2-trifluoroethoxy)pyridin-2-yl)methyl)amino)ethoxy)ethoxy)phenyl)-4H-chromen-4-one] | 0.47 ± 0.07 | 1.09 ± 0.09 | 3.62 ± 0.51 | 6.4 | 290 ± 50 | 300 ± 40 | < 5 | Time post oral feeding at which plasma level remains higher than respective IC50 [8]: 180 min; bioavailability [8]: 5% |
| Cl.O=c1cc(-c2ccc(OCCC3CCN(Cc4ccncc4)CC3)cc2)oc2ccccc12 [FM05.HCl] | – | – | – | – | – | – | – | IC50 [1]: 6 ± 0.5 µM; IC50 [9]: 3.5 ± 0.9 µM; IC50 [10]: 1.2 ± 0.5 µM; IC50 [11]: 23.8 µM; IC50 ([3]; listed as FM05.HCI): 6900 ± 900 nM; AUC(0-7 hr) [12]: 83089 ng·min/mL; Cmax (obs) [12]: 312.8 ng/mL; Half-life (Distribution and absorption) [12]: 25 min; Half-life (Elimination) [12]: 202 min; MRT (area) [12]: 321 min; Tmax (obs) [12]: 120 min |
| O=c1cc(-c2ccc(OCCOCCN(Cc3cccnc3)Cc3cccnc3)cc2)oc2ccccc12 [FM09b.HCl] | – | – | – | – | – | – | – | IC50 [1]: 8.08 ± 1.99 µM; IC50 [2]: 12.9 ± 7.32 µM; IC50 (mouse fibroblast (L929)): 75.1 ± 13.6 µM; IC50 [3]: > 10000 nM; IC50 [4]: > 10000 nM |
| CS(=O)(=O)NCCOCCOc1ccc(-c2cc(=O)c3ccccc3o2)cc1 [FM07, N-(2-(2-(4-(4-oxo-4H-chromen-2-yl)phenoxy)ethoxy)ethyl)methanesulfonamide] | > 100 | 38.8 ± 6.9 | 26 ± 4.1 | – | > 10000 | – | – | IC50 ([9]; Leishmania major): > 100 µM; IC50 ([10]; Leishmania donovani): 21.4 ± 2.6 µM; IC50 [13]: > 10 µM; IC50 [14]: > 10 µM |
| O=c1cc(-c2ccc(OCCOCCN(Cc3ccccc3)Cc3ccccc3)cc2)oc2ccccc12 [FM19, 2-(4-(2-(2-(dibenzylamino)ethoxy)ethoxy)phenyl)-4H-chromen-4-one] | 17.5 ± 3.2 | 9.8 ± 2.5 | 55.1 ± 7.2 | – | 1300 ± 600 | > 10000 | – | IC50 ([9]; Leishmania major): 21.6 ± 4.2 µM; IC50 ([10]; Leishmania donovani): > 100 µM; Selective index (a)/(b) [3]: >76.9; IC50 [13]: < 0.37 µM; IC50 [14]: > 10 µM; IC50 [15]: < 5 µM |
| CCCCCCCCCCCCCCCCOP(=O)([O-])OCC[N+](C)(C)C [Miltefosine, reference compound] | 32.7 ± 26.9 | 5.1 ± 1.4 | – | 75.3 ± 9.4 | 32700 ± 26900 | – | – | IC50 ([9]; Leishmania major): 9.7 ± 1.2 µM; IC50 ([10]; Leishmania donovani): 17.3 ± 2.1 µM; Selective index (a)/(b) [3]: 0.6; IC50 [13]: 13 ± 1.3 µM; Selective index (a)/(c) ([14]; IC50 RAW264.7 over IC50 L. donovani Ld39 amastigotes): 1.3; IC50 [14]: 16 ± 6.4 µM |
| O=C(NCCOCCOc1ccc(-c2cc(=O)c3ccccc3o2)cc1)c1ccncc1 [FM03, N-(2-(2-(4-(4-oxo-4H-chromen-2-yl)phenoxy)ethoxy)ethyl)isonicotinamide] | > 100 | 66.2 ± 11 | > 100 | – | > 10000 | > 9000 | – | IC50 ([9]; Leishmania major): > 100 µM; IC50 ([10]; Leishmania donovani): > 100 µM; IC50 [13]: > 10 µM; IC50 [14]: > 10 µM |
| COc1c(C)cnc(CN(CCOCCOc2ccc(-c3cc(=O)c4ccccc4o3)cc2)Cc2ncc(C)c(OC)c2C)c1C [FM09i, 2-(4-(2-(2-(bis((4-methoxy-3,5-dimethylpyridin-2-yl)methyl)amino)ethoxy)ethoxy)phenyl)-4H-chromen-4-one] | 0.08 ± 0.01 | 0.18 ± 0.07 | 2.28 ± 0.83 | 4.5 | 270 ± 20 | 300 ± 50 | < 5 | – |
| COc1ccnc(CN2CCC(CCOc3ccc(-c4cc(=O)c5ccccc5o4)cc3)CC2)c1OC [FM05b, 2-(4-(2-(1-((3,4-dimethoxypyridin-2-yl)methyl)piperidin-4-yl)ethoxy)phenyl)-4H-chromen-4-one] | 0.57 ± 0.17 | 0.89 ± 0.33 | 10.6 ± 1.13 | 5.1 | 300 ± 60 | 700 ± 370 | < 5 | Time post oral feeding at which plasma level remains higher than respective IC50 [8]: 420 min; bioavailability [8]: 36% |
| O=c1cc(-c2ccc(OCCOCCNCc3ccccn3)cc2)oc2ccccc12 [FM09m.HCl] | – | – | – | – | – | – | – | IC50 [1]: 14.3 ± 3.3 µM; IC50 [2]: 18.2 ± 2.13 µM; IC50 [11]: 28.3 µM; IC50 [3]: 7860 ± 2150 nM; IC50 [4]: > 10000 nM |
| O=c1cc(-c2ccc(OCCOCCN(Cc3ncccc3F)Cc3ncccc3F)cc2)oc2ccccc12 [FM09c, 2-(4-(2-(2-(bis((3-fluoropyridin-2-yl)methyl)amino)ethoxy)ethoxy)phenyl)-4H-chromen-4-one] | 3.19 ± 0.66 | 5.09 ± 1.13 | – | 35.4 ± 1.05 | 1950 ± 780 | 3100 | < 5 | – |
